Tests used:
Leukemia L-1210 cells = experiment: Antileukemia test, L-1210 (Test Example 1); assay type: in vivo, CDF mice; conditions: for Number of survivals: 60 days
Experimental: (1) Test animals: About 6-week old CDF mice each weighing 22±1 g; one group comprising 7 male mice.
1×10^5 Leukemia L-1210 cells per mouse were implanted into the abdomen of each mouse. After 24 hours, a given amount of CNUA dissolved in isotonic sodium chloride solution was administered to the mice in through three different methods, i.e. intraperitoneal administration, intravenous administration and peroral administration. The rate of apothanacia (%) and number of survivals after 60 days were examined.
^a Symbols in the column of "Method of Administration" have the
ip: Intraperitoneal administration,
iv: Intravenous administration,
po: Peroral administration,
day 1: A given amount of CNUA was administered once 24 hours after the
day 1-3: Continuous administration once a day for three days subsequently
^b Rate of apothanasia % (ILS) was calculated according to the
^c Number of survivals means the number of mice which survived for 60
days or longer in the group consisting of the 7 mice tested.

Leukemia P-388 cells = experiment: Antileukemia test, P-388 (Test Example 2); assay type: in vivo, CDF mice; conditions: for ILS (rate of apothanasia): 24 hours after implantation; for Number of survivals: 60 days
Experimental: (1) Test animals: The same animals as in Test 1.
1×10^5 Leukemia P-388 cells per mouse were implanted into the abdomen of each mouse. After 24 hours, a given amount of CNUA dissolved in isotonic sodium chloride solution was administered to the mice. The rate of apothanasia (%) and number of survivals after 60 days were examined.

[1] = tested on: Lewis lung carcinoma cells; experiment: Test of therapeutical effects on Lewis lung carcinoma (Test Example 3); assay type: in vivo, BDF mice; conditions: for Number of survivals: 60 days
Text: (1) Test animals: About 6-week old BDF mice each weighing 22±1 g; one group comprising 7 male mice.
5×10^5 Lewis lung carcinoma cells per mouse were implanted under the skin of each mouse. […] The rate of apothanasia and number of survivals after 60 days were examined.
*"day 1-9" in the column of "Method of Administration" indicates
continuous administration once/day for 9 days subsequently to "day 1".

β-16 melanoma cells = experiment: Test of therapeutical effects on melanoma (Test Example 4); assay type: in vivo, BDF mice; conditions: for Number of survivals: 60 days
Toxicity tests (LD50) = conditions: mouse, in vivo, DDY male mice
Experimental: CNUA dissolved in isotonic sodium chloride solution was given to DDY male mice each weighing 20 to 22.5 g by intraperitoneal administration, intravenous administration and peroral administration, and LD50 values were determined.

[2] = tested on: Peripheral leukocyte count; experiment: Effects on peripheral leukocyte count (Test Example 6); assay type: in vivo, DDY mice
Text: Comparison of effects of CNUA and Me-CCNU* on peripheral leukocyte count:
Six-week old DDY mice each weighing 22±1 g; one group comprising 5 male mice.
CNUA and Me-CCNU were given intraperitoneally on the first day. The, blood was drawn from a tail vein at time intervals to determine the leukocyte count. The samples were used in the form of a solution in an isotonic sodium chloride solution.

[3] = tested on: leukemia L-1210, P 388, Lewis lung carcinoma, β-16 melanoma and mouse lung autotumor; experiment: Antitumor effect, overall statement of the patent; assay type: in vivo, warm-blooded animals; mice

SMILES: O=NN(CCCl)C(=O)N[C@@H]1[C@H](O)[C@@H](CO)OC(O)[C@@H]1O (stereo partly drawn) [CNUA, 3-[3-(2-chloroethyl)-3-nitrosoureido]-3-deoxy-D-allose]
- ILS (rate of apothanasia) (Leukemia L-1210 cells; 5 mg/kg/day, iv, day 1): 29%
- ILS (rate of apothanasia) (Leukemia L-1210 cells; 10 mg/kg/day, iv, day 1): 43%
- ILS (rate of apothanasia) (Leukemia L-1210 cells; 11.3 mg/kg/day, ip, day 1): 86%
- ILS (rate of apothanasia) (Leukemia L-1210 cells; 11.3 mg/kg/day, ip, day 1-3): 143%
- ILS (rate of apothanasia) (Leukemia L-1210 cells; 20 mg/kg/day, iv, day 1): 86%
- ILS (rate of apothanasia) (Leukemia L-1210 cells; 22.5 mg/kg/day, ip, day 1): 157%
- ILS (rate of apothanasia) (Leukemia L-1210 cells; 22.5 mg/kg/day, ip, day 1-3): > 757%
- ILS (rate of apothanasia) (Leukemia L-1210 cells; 40 mg/kg/day, iv, day 1): > 757%
- ILS (rate of apothanasia) (Leukemia L-1210 cells; 45 mg/kg/day, ip, day 1): > 757%
- ILS (rate of apothanasia) (Leukemia L-1210 cells; 45 mg/kg/day, ip, day 1-3): > 757%
- ILS (rate of apothanasia) (Leukemia L-1210 cells; 50 mg/kg/day, iv, day 1): 400%
- ILS (rate of apothanasia) (Leukemia L-1210 cells; 60 mg/kg/day, ip, day 1): > 757%
- ILS (rate of apothanasia) (Leukemia L-1210 cells; 60 mg/kg/day, ip, day 1-3): > 757%
- ILS (rate of apothanasia) (Leukemia L-1210 cells; 100 mg/kg/day, po, day 1): 86%
- ILS (rate of apothanasia) (Leukemia L-1210 cells; 200 mg/kg/day, po, day 1): 100%
- ILS (rate of apothanasia) (Leukemia L-1210 cells; 300 mg/kg/day, po, day 1): 100%
- ILS (rate of apothanasia) (Leukemia L-1210 cells; 400 mg/kg/day, po, day 1): 57%
- Number of survivals (Leukemia L-1210 cells; 5 mg/kg/day, iv, day 1): 0/7
- Number of survivals (Leukemia L-1210 cells; 10 mg/kg/day, iv, day 1): 0/7
- Number of survivals (Leukemia L-1210 cells; 11.3 mg/kg/day, ip, day 1): 1/7
- Number of survivals (Leukemia L-1210 cells; 11.3 mg/kg/day, ip, day 1-3): 1/7
- Number of survivals (Leukemia L-1210 cells; 20 mg/kg/day, iv, day 1): 1/7
- Number of survivals (Leukemia L-1210 cells; 22.5 mg/kg/day, ip, day 1): 3/7
- Number of survivals (Leukemia L-1210 cells; 22.5 mg/kg/day, ip, day 1-3): 5/7
- Number of survivals (Leukemia L-1210 cells; 40 mg/kg/day, iv, day 1): 4/7
- Number of survivals (Leukemia L-1210 cells; 45 mg/kg/day, ip, day 1): 7/7
- Number of survivals (Leukemia L-1210 cells; 45 mg/kg/day, ip, day 1-3): 5/7
- Number of survivals (Leukemia L-1210 cells; 50 mg/kg/day, iv, day 1): 2/7
- Number of survivals (Leukemia L-1210 cells; 60 mg/kg/day, ip, day 1): 4/7
- Number of survivals (Leukemia L-1210 cells; 60 mg/kg/day, ip, day 1-3): 4/7
- Number of survivals (Leukemia L-1210 cells; 100 mg/kg/day, po, day 1): 0/7
- Number of survivals (Leukemia L-1210 cells; 200 mg/kg/day, po, day 1): 3/7
- Number of survivals (Leukemia L-1210 cells; 300 mg/kg/day, po, day 1): 2/7
- Number of survivals (Leukemia L-1210 cells; 400 mg/kg/day, po, day 1): 2/7
- ILS (rate of apothanasia) (Leukemia P-388 cells; 3.75 mg/kg/day): 50%
- ILS (rate of apothanasia) (Leukemia P-388 cells; 7.5 mg/kg/day): 90%
- ILS (rate of apothanasia) (Leukemia P-388 cells; 15 mg/kg/day): 240%
- ILS (rate of apothanasia) (Leukemia P-388 cells; 30 mg/kg/day): > 500%
- ILS (rate of apothanasia) (Leukemia P-388 cells; 45 mg/kg/day): > 500%
- ILS (rate of apothanasia) (Leukemia P-388 cells; 60 mg/kg/day): > 500%
- Number of survivals (Leukemia P-388 cells; 3.75 mg/kg/day): 0/7
- Number of survivals (Leukemia P-388 cells; 7.5 mg/kg/day): 0/7
- Number of survivals (Leukemia P-388 cells; 15 mg/kg/day): 3/7
- Number of survivals (Leukemia P-388 cells; 30 mg/kg/day): 5/7
- Number of survivals (Leukemia P-388 cells; 45 mg/kg/day): 7/7
- Number of survivals (Leukemia P-388 cells; 60 mg/kg/day): 6/7
- ILS (rate of apothanasia) ([1]; 2.23 mg/kg/day, ip, day 1-9): 4%
- ILS (rate of apothanasia) ([1]; 4.45 mg/kg/day, ip, day 1-9): 21%
- ILS (rate of apothanasia) ([1]; 5 mg/kg/day, ip, day 1): 0%
- ILS (rate of apothanasia) ([1]; 6.67 mg/kg/day, ip, day 1-9): 29%
- ILS (rate of apothanasia) ([1]; 10 mg/kg/day, ip, day 1): 0%
- ILS (rate of apothanasia) ([1]; 15 mg/kg/day, iv, day 1): 35%
- ILS (rate of apothanasia) ([1]; 20 mg/kg/day, ip, day 1): 68%
- ILS (rate of apothanasia) ([1]; 30 mg/kg/day, iv, day 1): 80%
- ILS (rate of apothanasia) ([1]; 40 mg/kg/day, ip, day 1): > 172%
- ILS (rate of apothanasia) ([1]; 40 mg/kg/day, iv, day 1): > 200%
- ILS (rate of apothanasia) ([1]; 50 mg/kg/day, iv, day 1): > 200%
- Number of survivals ([1]; 2.23 mg/kg/day, ip, day 1-9): 0/7
- Number of survivals ([1]; 4.45 mg/kg/day, ip, day 1-9): 1/7
- Number of survivals ([1]; 5 mg/kg/day, ip, day 1): 0/7
- Number of survivals ([1]; 6.67 mg/kg/day, ip, day 1-9): 0/7
- Number of survivals ([1]; 10 mg/kg/day, ip, day 1): 0/7
- Number of survivals ([1]; 15 mg/kg/day, iv, day 1): 0/7
- Number of survivals ([1]; 20 mg/kg/day, ip, day 1): 2/7
- Number of survivals ([1]; 30 mg/kg/day, iv, day 1): 1/7
- Number of survivals ([1]; 40 mg/kg/day, ip, day 1): 6/7
- Number of survivals ([1]; 40 mg/kg/day, iv, day 1): 6/7
- Number of survivals ([1]; 50 mg/kg/day, iv, day 1): 5/7
- ILS (rate of apothanasia) (β-16 melanoma cells; 1.12 mg/kg/day, day 1-9, ip): 10%
- ILS (rate of apothanasia) (β-16 melanoma cells; 2.23 mg/kg/day, day 1-9, ip): 25%
- ILS (rate of apothanasia) (β-16 melanoma cells; 4.45 mg/kg/day, day 1-9, ip): 30%
- ILS (rate of apothanasia) (β-16 melanoma cells; 5 mg/kg/day, day 1, ip): 0%
- ILS (rate of apothanasia) (β-16 melanoma cells; 6.67 mg/kg/day, day 1-9, ip): 35%
- ILS (rate of apothanasia) (β-16 melanoma cells; 10 mg/kg/day, day 1, ip): 16%
- ILS (rate of apothanasia) (β-16 melanoma cells; 20 mg/kg/day, day 1, ip): 48%
- ILS (rate of apothanasia) (β-16 melanoma cells; 20 mg/kg/day, day 1, iv): 65%
- ILS (rate of apothanasia) (β-16 melanoma cells; 40 mg/kg/day, day 1, ip): 60%
- ILS (rate of apothanasia) (β-16 melanoma cells; 40 mg/kg/day, day 1, iv): 155%
- ILS (rate of apothanasia) (β-16 melanoma cells; 60 mg/kg/day, day 1, iv): 35%
- Number of survivals (β-16 melanoma cells; 1.12 mg/kg/day, day 1-9, ip): 0/7
- Number of survivals (β-16 melanoma cells; 2.23 mg/kg/day, day 1-9, ip): 0/7
- Number of survivals (β-16 melanoma cells; 4.45 mg/kg/day, day 1-9, ip): 0/7
- Number of survivals (β-16 melanoma cells; 5 mg/kg/day, day 1, ip): 0/7
- Number of survivals (β-16 melanoma cells; 6.67 mg/kg/day, day 1-9, ip): 0/7
- Number of survivals (β-16 melanoma cells; 10 mg/kg/day, day 1, ip): 0/7
- Number of survivals (β-16 melanoma cells; 20 mg/kg/day, day 1, ip): 1/7
- Number of survivals (β-16 melanoma cells; 20 mg/kg/day, day 1, iv): 1/7
- Number of survivals (β-16 melanoma cells; 40 mg/kg/day, day 1, ip): 2/7
- Number of survivals (β-16 melanoma cells; 40 mg/kg/day, day 1, iv): 1/7
- Number of survivals (β-16 melanoma cells; 60 mg/kg/day, day 1, iv): 0/7
- LD50 (Toxicity tests (LD50); ip): 65.5 mg/kg
- LD50 (Toxicity tests (LD50); iv): 80 mg/kg
- LD50 (Toxicity tests (LD50); po): 550 mg/kg
- Peripheral leukocyte count after the administration ([2]; 30 mg/kg ip, 2 day): 84.0 % based on the control
- Peripheral leukocyte count after the administration ([2]; 30 mg/kg ip, 4 day): 82.2 % based on the control
- Peripheral leukocyte count after the administration ([2]; 30 mg/kg ip, 7 day): 85.6 % based on the control
- Peripheral leukocyte count after the administration ([2]; 30 mg/kg ip, 10 day): 84.7 % based on the control
- Peripheral leukocyte count after the administration ([2]; 30 mg/kg ip, 14 day): 159 % based on the control
- Peripheral leukocyte count after the administration ([2]; 60 mg/kg ip, 2 day): 78.2 % based on the control
- Peripheral leukocyte count after the administration ([2]; 60 mg/kg ip, 4 day): 60.0 % based on the control
- Peripheral leukocyte count after the administration ([2]; 60 mg/kg ip, 7 day): 64.5 % based on the control
- Peripheral leukocyte count after the administration ([2]; 60 mg/kg ip, 10 day): 80.0 % based on the control
- Peripheral leukocyte count after the administration ([2]; 60 mg/kg ip, 14 day): 100 % based on the control
- myelotoxicity ([2]; as compared with Me-CCNU): relatively low myelotoxicity
- antitumor effects [3]: powerful antitumor effects
